Assay results published in PMC8480593, “Anti-influenza A virus activity and structure–activity relationship of a series of nitrobenzoxadiazole derivatives” (Journal of Enzyme Inhibition and Medicinal Chemistry, 2021).
Where two headings read alike, the source gives them in different places.

Experiments:
[1] = test system: influenza virus A/Puerto Rico/8/34 H1N1 (PR8); test: microbe, parasite or virus in culture; format: cell-based
[2] = test system: influenza virus A/Puerto Rico/8/34 H1N1 (PR8); conditions: A549 cells; CC50 from Cell Tag in mock infected cells, IC50 by ICW
in vitro = conditions: human
[3] = test system: influenza virus A/Puerto Rico/8/34 H1N1 (PR8); conditions: A549 cells, CC50 by Trypan Blue exclusion
[4] = test system: influenza virus A/Puerto Rico/8/34 H1N1 (PR8); test: microbe, parasite or virus in culture; conditions: H1N1|PR8, A549, read-out: IC50, HAU – A549
[5] = test system: influenza virus A/Puerto Rico/8/34 H1N1 (PR8); test: microbe, parasite or virus in culture; conditions: unidentified influenza virus, A549, read-out: IC50, ICW – A549
MDCK cells = test: Cytotoxicity on MDCK cells (MTT and Trypan Blue exclusion); conditions: 1–30 µM, Toxic = toxic at all tested concentrations
[6] = unidentified influenza virus, MDCK, 24 h, read-out: IC50 (concentration required to inhibit viral replication of 50%), MDCK cells infected with PR8 (m.o.i. 0.001), HAU in supernatants 24 h p.i., Inactive = at maximum tested concentration (30 µM)
[7] = MDCK cells infected with PR8 (m.o.i. 0.001), HAU in supernatants 24 h p.i., Inactive = at maximum tested concentration (30 µM)

SMILES	IC50 [1, 6] [µM]	IC50 (concentration required to inhibit viral replication of 50%) [1, 7]	other results
O=[N+]([O-])c1ccc(SCCCCCCCCO)c2nonc12 [Compound 6]	> 30	–	–
O=C(O)CCC(=O)OCCCCSc1ccc([N+](=O)[O-])c2nonc12 [Compound 9, 4–(4-((7-nitrobenzo[c][1,2,5]oxadiazol-4-yl)thio)butoxy)-4-oxobutanoic acid]	17.1 ± 0.9	–	IC50 (concentration required to inhibit viral replication of 50%) [1]: effective against IV; melting point: 90 to 93 °C
O=C(O)CCC(=O)OCCCCCCSc1ccc([N+](=O)[O-])c2nonc12 [Compound 10]	22.2 ± 1.4	–	–
O=C(O)CCC(=O)OCCOCCSc1ccc([N+](=O)[O-])c2nonc12 [Compound 11, 4–(2–(2-((7-nitrobenzo[c][1,2,5]oxadiazol-4-yl)thio)ethoxy)ethoxy)-4-oxobutanoic acid]	> 30	–	IC50 (concentration required to inhibit viral replication of 50%) [1]: effective against IV; melting point: 74 to 76 °C
COC(=O)CCSc1ccc([N+](=O)[O-])c2nonc12 [Compound 12]	–	–	SI (CC50/IC50 ICW – A549) [2]: 5; CC50 at 24 h (in vitro): 54.5 µM; IC50 (concentration required to inhibit viral replication of 50%) [1]: effective against IV; SI (CC50/IC50 HAU – A549) [3]: 11; IC50 [4]: 5.1 ± 0.2 µM; IC50 [5]: 10 ± 0.5 µM
O=C(CCSc1ccc([N+](=O)[O-])c2nonc12)NCCO [Compound 14]	> 30	Inactive^b	–
O=C1CCN(C(=O)CCSc2ccc([N+](=O)[O-])c3nonc23)CC1 [Compound 16]	–	–	Cytotoxicity (MDCK cells): Toxic^a
COC(=O)C(CSc1ccc([N+](=O)[O-])c2nonc12)NC(=O)OC(C)(C)C (stereo not shown) [Compound 17]	–	–	SI (CC50/IC50 ICW – A549) [2]: 3; IC50 (concentration required to inhibit viral replication of 50%) [1]: effective against IV; SI (CC50/IC50 HAU – A549) [3]: 2; IC50 [4]: 11.7 ± 1 µM; IC50 [5]: 9.6 ± 0.8 µM
CC(=O)N[C@@H](CSc1ccc([N+](=O)[O-])c2nonc12)C(=O)O [Compound 19, N-acetyl-S-(7-nitrobenzo[c][1,2,5]oxadiazol-4-yl)cysteine]	24 ± 2.3	–	IC50 (concentration required to inhibit viral replication of 50%) [1]: effective against IV; melting point: 166 to 168 °C
CC(C)(C)Sc1ccc([N+](=O)[O-])c2nonc12 [Compound 21]	> 30	Inactive^b	–
O=[N+]([O-])c1ccc(Sc2ncccn2)c2nonc12 [Compound 22, 4-nitro-7-(pyrimidin-2-ylthio)benzo[c][1,2,5]oxadiazole]	–	–	melting point: 144 to 147 °C
O=[N+]([O-])c1ccc(Sc2nc3ccccc3[nH]2)c2nonc12 [Compound 23, 4-((1H-benzo[d]imidazol-2-yl)thio)-7-nitrobenzo[c][1,2,5]oxadiazole]	> 30	Inactive^b	melting point: 206 to 208 °C
O=[N+]([O-])c1ccc(SCc2ccccc2)c2nonc12 [Compound 25]	< 10	–	SI (CC50/IC50 ICW – A549) [2]: 4; IC50 (concentration required to inhibit viral replication of 50%) [1]: effective against IV; IC50 ([1]; read-out: IC50 (concentration required to inhibit viral replication of 50%), MDCK cells infected with PR8 (m.o.i. 0.001), HAU in supernatants 24 h p.i., Inactive = at maximum tested concentration (30 µM)): 6.3 ± 0.5 µM; SI (CC50/IC50 HAU – A549) [3]: 6; IC50 [4]: 1.9 ± 0.1 µM; IC50 [5]: 8.9 ± 0.6 µM
O=C(O)c1ccccc1Sc1ccc([N+](=O)[O-])c2nonc12 [Compound 27]	> 30	Inactive^b	–
O=C(O)c1cccc(Sc2ccc([N+](=O)[O-])c3nonc23)c1 [Compound 28]	> 30	Inactive^b	–
CCOC(=O)c1ccc(Sc2ccc([N+](=O)[O-])c3nonc23)cc1 [Compound 30]	> 30	Inactive^b	–
NC(=O)c1ccc(Sc2ccc([N+](=O)[O-])c3nonc23)cc1 [Compound 31]	> 30	Inactive^b	–
CN(C)C(=O)c1ccc(Sc2ccc([N+](=O)[O-])c3nonc23)cc1 [Compound 32]	> 30	–	–
O=C(NO)c1ccc(Sc2ccc([N+](=O)[O-])c3nonc23)cc1 [Compound 33]	> 30	Inactive^b	–
O=C(NCCO)c1ccc(Sc2ccc([N+](=O)[O-])c3nonc23)cc1 [Compound 37]	> 30	Inactive^b	–
CN(C)CCNC(=O)c1ccc(Sc2ccc([N+](=O)[O-])c3nonc23)cc1 [Compound 38]	> 30	Inactive^b	–
O=C(O)Cc1ccc(Sc2ccc([N+](=O)[O-])c3nonc23)cc1 [Compound 39]	> 30	Inactive^b	–
O=C(O)CCc1ccc(Sc2ccc([N+](=O)[O-])c3nonc23)cc1 [Compound 40]	18.3 ± 1.6	–	IC50 (concentration required to inhibit viral replication of 50%) [1]: effective against IV
O=C(O)c1ccc(CSc2ccc([N+](=O)[O-])c3nonc23)cc1 [Compound 41]	10.8 ± 0.6	–	IC50 (concentration required to inhibit viral replication of 50%) [1]: effective against IV
CCOC(=O)c1ccc(CSc2ccc([N+](=O)[O-])c3nonc23)cc1 [Compound 42]	17.2 ± 1.6	–	–
O=[N+]([O-])c1ccc([S+]([O-])CCCCCCO)c2nonc12 (stereo not shown) [Compound 43]	> 30	Inactive^b	–
O=[N+]([O-])c1ccc(S(=O)(=O)CCCCCCO)c2nonc12 [Compound 44]	> 30	Inactive^b	–
O=[N+]([O-])c1ccc(NCCCCCCO)c2nonc12 [Compound 45]	> 30	Inactive^b	Cytotoxicity (MDCK cells): NOT toxic
